Where two headings read alike, the source gives them in different places.
Columns and labels:
[1] = tested on: HCV genotype 1b replicon; test: HCV replicon assay, genotype 1b replicon EC50; format: cell-based, Hepatitis C virus; details: Hepatitis C virus, genotype 1b replicon, read-out: EC50 [gt-1b]
Procedure, shortened: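 Cells harbouring a stable replicon are grown under G418 selection, then plated with test compound in G418-free medium for 24-48 hours. After washing and lysis, RNA or luciferase signal is measured and expressed as percent of DMSO control to give EC50.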

[2] = molecular target: HCV NS3/4A protease genotype 1b (Hepatitis C virus genotype 1b, UniProt P26663); test: HCV NS3/4A protease time-resolved fluorescence (TRF) assay, Ki against genotype 1b; format: biochemical; details: IC50 [gt-1b] (nM), NS3/4A genotype 1b, enzyme 0.2 nM
Procedure, shortened: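 Enzyme was pre-incubated 30 min with inhibitor in HEPES pH 7.5 buffer (150 mM NaCl, 15% glycerol, 10 mM DTT). Reaction ran 2.5 h at room temperature with 25 nM europium TRF peptide substrate, read at ex 340/em 615 nm. Enzyme levels: 0.2 nM (1b), 0.4 nM (A156T), 0.025 nM (3a). Ki came from four-parameter IC50 via IC50=Ki(1+[S]/KM).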

| Compound | EC50 [1] [nM] | IC50 [2] [nM] | EC50 ([1]; K+ salt) [nM] | IC50 ([2]; K+ salt) [nM] |
| --- | --- | --- | --- | --- |
| Cc1nc2ccc(OC(F)(F)F)cc2c2c1O[C@]1(CC2)C[C@H]2C(=O)N[C@]3(C(=O)NS(=O)(=O)C4(C)CC4)C[C@H]3/C=C\CCCCC[C@H](NC(=O)OC(C)(C)C(F)(F)F)C(=O)N2C1 [Example 298, 1,1,1-trifluoro-2-methylpropan-2-yl [(2R,6S,12Z,13aS,14aR,16aS)-5′-methyl-14a-{[(1-methylcyclopropyl)sulfonyl]carbamoyl}-5,16-dioxo-9′-(trifluoromethoxy)-1,1′,2′,5,6,7,8,9,10,11,13a,14,14a,15,16,16a-hexadecahydrospiro[cyclopropa[e]pyrrolo[1,2-a][1,4]diazacyclopentadecine-2,3′-pyrano[2,3-c]quinolin]-6-yl]carbamate] | 6.31 | 0.017 | – | – |
| COc1ccc2nc(C(C)C)c3c(c2c1)C(F)(F)C[C@]1(C[C@H]2C(=O)N[C@]4(C(=O)NS(=O)(=O)C5(C)CC5)C[C@H]4/C=C\CCCCC[C@H](NC(=O)OC(C)(C)C(F)(F)F)C(=O)N2C1)O3 [Example 299, 1,1,1-trifluoro-2-methylpropan-2-yl [(2S,6S,12Z,13aS,14aR,16aS)-1′,1′-difluoro-9′-methoxy-14a-{[(1-methylcyclopropyl)sulfonyl]carbamoyl}-5,16-dioxo-5′-(propan-2-yl)-1,1′,2′,5,6,7,8,9,10,11,13a,14,14a,15,16,16a-hexadecahydrospiro[cyclopropa[e]pyrrolo[1,2-a][1,4]diazacyclopentadecine-2,3′-pyrano[2,3-c]quinolin]-6-yl]carbamate] | – | – | 6.37 | 0.02 |
| Cc1nc2ccccc2c2c1O[C@]1(CC2)C[C@H]2C(=O)N[C@]3(C(=O)NS(=O)(=O)C4(C)CC4)C[C@H]3/C=C\CCCCC[C@H](NC(=O)OC(C)(C)C(F)(F)C(F)(F)F)C(=O)N2C1 [Example 300, 3,3,4,4,4-pentafluoro-2-methylbutan-2-yl [(2R,6S,12Z,13aS,14aR,16aS)-5′-methyl-14a-{[(1-methylcyclopropyl)sulfonyl]carbamoyl}-5,16-dioxo-1,1′,2′,5,6,7,8,9,10,11,13a,14,14a,15,16,16a-hexadecahydrospiro[cyclopropa[e]pyrrolo[1,2-a][1,4]diazacyclopentadecine-2,3′-pyrano[2,3-c]quinolin]-6-yl]carbamate] | 3.12 | 0.021 | – | – |
| Cc1nc2ccc(OCC(F)(F)F)cc2c2c1O[C@]1(CC2)C[C@H]2C(=O)N[C@]3(C(=O)NS(=O)(=O)C4(C)CC4)C[C@H]3/C=C\CCCCC[C@H](NC(=O)OC(C)(C)C(F)(F)F)C(=O)N2C1 [Example 301, 1,1,1-trifluoro-2-methylpropan-2-yl [(2R,6S,12Z,13aS,14aR,16aS)-5′-methyl-14a-{[(1-methylcyclopropyl)sulfonyl]carbamoyl}-5,16-dioxo-9′-(2,2,2-trifluoroethoxy)-1,1′,2′,5,6,7,8,9,10,11,13a,14,14a,15,16,16a-hexadecahydrospiro[cyclopropa[e]pyrrolo[1,2-a][1,4]diazacyclopentadecine-2,3′-pyrano[2,3-c]quinolin]-6-yl]carbamate] | 3.46 | 0.013 | – | – |
| Cc1nc2ccc(OCC(F)(F)F)cc2c2c1O[C@]1(CC2)C[C@H]2C(=O)N[C@]3(C(=O)NS(=O)(=O)C4(C)CC4)C[C@H]3/C=C\CCCCC[C@H](NC(=O)OC3(C)CCCC3)C(=O)N2C1 [Example 302, 1-methylcyclopentyl [(2R,6S,12Z,13aS,14aR,16aS)-5′-methyl-14a-{[(1-methylcyclopropyl)sulfonyl]carbamoyl}-5,16-dioxo-9′-(2,2,2-trifluoroethoxy)-1,1′,2′,5,6,7,8,9,10,11,13a,14,14a,15,16,16a-hexadecahydrospiro[cyclopropa[e]pyrrolo[1,2-a][1,4]diazacyclopentadecine-2,3′-pyrano[2,3-c]quinolin]-6-yl]carbamate] | 4.19 | 0.006 | – | – |
| Cc1nc2ccc(OCC(F)(F)F)cc2c2c1O[C@]1(CC2)C[C@H]2C(=O)N[C@]3(C(=O)NS(=O)(=O)C4(C)CC4)C[C@H]3/C=C\CCCCC[C@H](NC(=O)OCC(C)(C)C)C(=O)N2C1 [Example 303, 2,2-dimethylpropyl [(2R,6S,12Z,13aS,14aR,16aS)-5′-methyl-14a-{[(1-methylcyclopropyl)sulfonyl]carbamoyl}-5,16-dioxo-9′-(2,2,2-trifluoroethoxy)-1,1′,2′,5,6,7,8,9,10,11,13a,14,14a,15,16,16a-hexadecahydrospiro[cyclopropa[e]pyrrolo[1,2-a][1,4]diazacyclopentadecine-2,3′-pyrano[2,3-c]quinolin]-6-yl]carbamate] | 5.79 | 0.012 | – | – |
| Cc1nc2ccccc2c2c1O[C@]1(CC2)C[C@H]2C(=O)N[C@]3(C(=O)NS(=O)(=O)C4(C)CC4)C[C@H]3/C=C\CCCCC[C@H](NC(=O)OC(C)(C)CCS(=O)(=O)C(C)C)C(=O)N2C1 [Example 304, 2-methyl-4-(propan-2-ylsulfonyl)butan-2-yl [(2R,6S,12Z,13aS,14aR,16aS)-5′-methyl-14a-{[(1-methylcyclopropyl)sulfonyl]carbamoyl}-5,16-dioxo-1,1′,2′,5,6,7,8,9,10,11,13a,14,14a,15,16,16a-hexadecahydrospiro[cyclopropa[e]pyrrolo[1,2-a][1,4]diazacyclopentadecine-2,3′-pyrano[2,3-c]quinolin]-6-yl]carbamate] | 99.6 | 0.027 | – | – |
| Cc1nc2ccc(OC(F)(F)F)cc2c2c1O[C@]1(CC2)C[C@H]2C(=O)N[C@]3(C(=O)NS(=O)(=O)C4(C)CC4)C[C@H]3/C=C\CCCCC[C@H](NC(=O)OC(C)(C)CCS(=O)(=O)C(C)C)C(=O)N2C1 [Example 305, 2-methyl-4-(propan-2-ylsulfonyl)butan-2-yl [(2R,6S,12Z,13aS,14aR,16aS)-5′-methyl-14a-{[(1-methylcyclopropyl)sulfonyl]carbamoyl}-5,16-dioxo-9′-(trifluoromethoxy)-1,1′,2′,5,6,7,8,9,10,11,13a,14,14a,15,16,16a-hexadecahydrospiro[cyclopropa[e]pyrrolo[1,2-a][1,4]diazacyclopentadecine-2,3′-pyrano[2,3-c]quinolin]-6-yl]carbamate] | 35.2 | 0.029 | – | – |
| CC(C)(C)OC(=O)N[C@H]1CCCCC/C=C\[C@@H]2C[C@@]2(C(=O)NS(=O)(=O)C2(C)CC2)NC(=O)[C@@H]2C[C@]3(CCc4c(c(C(F)F)nc5ccccc45)O3)CN2C1=O [Example 306, tert-butyl [(2R,6S,12Z,13aS,14aR,16aS)-5′-(difluoromethyl)-14a-{[(1-methylcyclopropyl)sulfonyl]carbamoyl}-5,16-dioxo-1,1′,2′,5,6,7,8,9,10,11,13a,14,14a,15,16,16a-hexadecahydrospiro[cyclopropa[e]pyrrolo[1,2-a][1,4]diazacyclopentadecine-2,3′-pyrano[2,3-c]quinolin]-6-yl]carbamate] | 1.87 | 0.015 | – | – |
| Cc1nc2ccccc2c2c1O[C@]1(CC2)C[C@H]2C(=O)N[C@]3(C(=O)NS(=O)(=O)C4(C)CC4)C[C@H]3/C=C\CCCCC[C@H](NC(=O)OC(C)(C(F)(F)F)C(F)(F)F)C(=O)N2C1 [Example 307, 1,1,1,3,3,3-hexafluoro-2-methylpropan-2-yl [(2R,6S,12Z,13aS,14aR,16aS)-5′-methyl-14a-{[(1-methylcyclopropyl)sulfonyl]carbamoyl}-5,16-dioxo-1,1′,2′,5,6,7,8,9,10,11,13a,14,14a,15,16,16a-hexadecahydrospiro[cyclopropa[e]pyrrolo[1,2-a][1,4]diazacyclopentadecine-2,3′-pyrano[2,3-c]quinolin]-6-yl]carbamate] | 1080 | 0.019 | – | – |
| Cc1nc2ccc(OCC(F)(F)F)cc2c2c1O[C@]1(CC2)C[C@H]2C(=O)N[C@]3(C(=O)NS(=O)(=O)C4(C)CC4)C[C@H]3/C=C\CCCCC[C@H](NC(=O)OC(C)(C(F)(F)F)C(F)(F)F)C(=O)N2C1 [Example 308, 1,1,1,3,3,3-hexafluoro-2-methylpropan-2-yl [(2R,6S,12Z,13aS,14aR,16aS)-5′-methyl-14a-{[(1-methylcyclopropyl)sulfonyl]carbamoyl}-5,16-dioxo-9′-(2,2,2-trifluoroethoxy)-1,1′,2′,5,6,7,8,9,10,11,13a,14,14a,15,16,16a-hexadecahydrospiro[cyclopropa[e]pyrrolo[1,2-a][1,4]diazacyclopentadecine-2,3′-pyrano[2,3-c]quinolin]-6-yl]carbamate] | 416 | 0.006 | – | – |
| CC(C)(OC(=O)N[C@H]1CCCCC/C=C\[C@@H]2C[C@@]2(C(=O)NS(=O)(=O)C2(C)CC2)NC(=O)[C@@H]2C[C@]3(CCc4c(c(C(F)F)nc5ccccc45)O3)CN2C1=O)C(F)(F)F [Example 309, 1,1,1-trifluoro-2-methylpropan-2-yl [(2R,6S,12Z,13aS,14aR,16aS)-5′-(difluoromethyl)-14a-{[(1-methylcyclopropyl)sulfonyl]carbamoyl}-5,16-dioxo-1,1′,2′,5,6,7,8,9,10,11,13a,14,14a,15,16,16a-hexadecahydrospiro[cyclopropa[e]pyrrolo[1,2-a][1,4]diazacyclopentadecine-2,3′-pyrano[2,3-c]quinolin]-6-yl]carbamate] | 1.94 | 0.01 | – | – |

From patent publication US8987195B2 (priority 2012, dated 2015)
